The record followed here is patent US20220153766A1, “CONDENSED TRICYCLIC COMPOUND USED AS KINASE INHIBITOR” (Hangzhou Innogate Pharma Co., Ltd., priority 2019, published 2022).

As a reminder, the IC50 is the concentration needed to halve the response being measured. Usually Cmax stands for the peak of the concentration-time curve. What is called Tmax is the time from dosing to the highest level. The term half-life denotes the time needed for the level to fall by half in the phase considered.

Where only a bound is given, the exact number is not on record here.

In data set [1] the target is MAP4K1 (HPK1) (Homo sapiens, UniProt Q92918). The experiment in a line: MAP4K1 (HPK1) kinase activity inhibition, Caliper mobility shift assay. The class given is biochemical. The note with it: kinase 1.25 nM, ATP 10.1 μM. The procedure, abridged: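 HPK1 kinase at 1.25 nM final preincubated 10 min at room temperature with compound (5 points, 5-fold dilutions from 500 nM), then reacted 120 min with 10.1 μM ATP and 3 μM substrate peptide No. 25. EDTA stop; mobility-shift conversion read, IC50 from variable-slope four-parameter fit of % inhibition.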

Data set [2] is described as follows: Pharmacokinetic study in rats after intragastrical administration. The class given is in vivo. The settings on record: male, rat, plasma, po, SD rats, 3 mg/kg.
Data set [3] concerns the target EGFR (T790M/L858R/C797S) (Homo sapiens, UniProt P00533, C797S/L858R/T790M). The experiment in a line: EGFR (T790M/L858R/C797S) kinase activity inhibition, Caliper mobility shift assay. The data set is classed as biochemical. The settings on record: kinase 2.5 nM, ATP 40 μM.
Data set [4] deals with Ba/F3_EGFR del19/T790M/C797S cells (Homo sapiens, UniProt P00533, T790M/C797S, cells depend on it, form not given). The experiment in a line: Ba/F3_EGFR (del19-T790M-C797S) cell proliferation inhibition, CTG, method 2. The class given is cell-based. The note with it: 2000 cells/well, 72 h, read-out: Ba/F3_EGFR (del19-T790M-C797S) cell proliferation inhibition (IC50 value) Method 2. The method, then: Take a small amount of cells and count them with ViCell. 2) Adjust the cell density, inoculate the cells in a 384-well plate at 2000/well, and incubate in a 37° C., 5% CO2 incubator for 4 hours. 3) Set up the program of Tecan HP D300, add the compound to the well plate. The maximum initial concentration of the compound is 1-4 μM, 3 folds dilution, 9 concentrations, and the DMSO content in each well is unified to 0.2%.
CTG method detection: 1) Take out the CTG reagent and cell plate and equilibrate at room temperature for 30 min, add 25 μL CTG to each well, shake at medium speed for 2 min, centrifuge at 1000 rpm for 1 minutes, and stand still at room temperature for 10 minutes. 2) Envision instrument reads the chemiluminescence signal value.
Data analysis: IC50 results are analyzed by IDBS's XL-fit 5.0 software.

Chain of EGFR (T790M/L858R/C797S) (P00533 25-1210 T790M/C797S/L858R): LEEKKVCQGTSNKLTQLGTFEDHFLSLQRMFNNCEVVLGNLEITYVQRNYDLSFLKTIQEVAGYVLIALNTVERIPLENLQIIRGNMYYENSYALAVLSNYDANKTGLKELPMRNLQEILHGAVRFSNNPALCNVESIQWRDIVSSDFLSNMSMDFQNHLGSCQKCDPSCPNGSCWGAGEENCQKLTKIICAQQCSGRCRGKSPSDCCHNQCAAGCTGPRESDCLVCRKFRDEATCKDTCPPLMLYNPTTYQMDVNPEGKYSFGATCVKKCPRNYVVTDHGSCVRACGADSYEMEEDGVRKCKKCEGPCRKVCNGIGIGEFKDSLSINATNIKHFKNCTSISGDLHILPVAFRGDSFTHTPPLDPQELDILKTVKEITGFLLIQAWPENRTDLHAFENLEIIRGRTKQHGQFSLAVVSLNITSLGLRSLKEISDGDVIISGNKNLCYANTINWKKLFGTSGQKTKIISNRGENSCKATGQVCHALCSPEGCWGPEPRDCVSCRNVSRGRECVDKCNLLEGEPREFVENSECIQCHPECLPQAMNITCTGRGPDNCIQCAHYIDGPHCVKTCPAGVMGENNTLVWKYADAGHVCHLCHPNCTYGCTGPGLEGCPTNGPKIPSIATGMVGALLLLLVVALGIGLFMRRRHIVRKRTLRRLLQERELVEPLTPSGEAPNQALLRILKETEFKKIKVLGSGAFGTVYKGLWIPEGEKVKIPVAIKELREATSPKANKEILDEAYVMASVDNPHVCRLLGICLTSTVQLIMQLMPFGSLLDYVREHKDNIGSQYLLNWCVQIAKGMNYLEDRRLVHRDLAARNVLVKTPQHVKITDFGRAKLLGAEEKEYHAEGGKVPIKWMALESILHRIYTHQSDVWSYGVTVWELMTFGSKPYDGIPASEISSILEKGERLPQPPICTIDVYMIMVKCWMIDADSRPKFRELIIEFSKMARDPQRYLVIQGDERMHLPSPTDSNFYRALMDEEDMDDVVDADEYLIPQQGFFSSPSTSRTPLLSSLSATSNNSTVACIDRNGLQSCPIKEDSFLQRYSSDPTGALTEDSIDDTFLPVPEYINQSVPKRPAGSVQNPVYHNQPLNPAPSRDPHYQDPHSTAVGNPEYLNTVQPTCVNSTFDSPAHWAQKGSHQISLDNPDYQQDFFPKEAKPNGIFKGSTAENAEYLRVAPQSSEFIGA
Chain of Ba/F3_EGFR del19/T790M/C797S cells (P00533 with tags, fused parts or gaps DEL746-750/T790M/C797S, form open): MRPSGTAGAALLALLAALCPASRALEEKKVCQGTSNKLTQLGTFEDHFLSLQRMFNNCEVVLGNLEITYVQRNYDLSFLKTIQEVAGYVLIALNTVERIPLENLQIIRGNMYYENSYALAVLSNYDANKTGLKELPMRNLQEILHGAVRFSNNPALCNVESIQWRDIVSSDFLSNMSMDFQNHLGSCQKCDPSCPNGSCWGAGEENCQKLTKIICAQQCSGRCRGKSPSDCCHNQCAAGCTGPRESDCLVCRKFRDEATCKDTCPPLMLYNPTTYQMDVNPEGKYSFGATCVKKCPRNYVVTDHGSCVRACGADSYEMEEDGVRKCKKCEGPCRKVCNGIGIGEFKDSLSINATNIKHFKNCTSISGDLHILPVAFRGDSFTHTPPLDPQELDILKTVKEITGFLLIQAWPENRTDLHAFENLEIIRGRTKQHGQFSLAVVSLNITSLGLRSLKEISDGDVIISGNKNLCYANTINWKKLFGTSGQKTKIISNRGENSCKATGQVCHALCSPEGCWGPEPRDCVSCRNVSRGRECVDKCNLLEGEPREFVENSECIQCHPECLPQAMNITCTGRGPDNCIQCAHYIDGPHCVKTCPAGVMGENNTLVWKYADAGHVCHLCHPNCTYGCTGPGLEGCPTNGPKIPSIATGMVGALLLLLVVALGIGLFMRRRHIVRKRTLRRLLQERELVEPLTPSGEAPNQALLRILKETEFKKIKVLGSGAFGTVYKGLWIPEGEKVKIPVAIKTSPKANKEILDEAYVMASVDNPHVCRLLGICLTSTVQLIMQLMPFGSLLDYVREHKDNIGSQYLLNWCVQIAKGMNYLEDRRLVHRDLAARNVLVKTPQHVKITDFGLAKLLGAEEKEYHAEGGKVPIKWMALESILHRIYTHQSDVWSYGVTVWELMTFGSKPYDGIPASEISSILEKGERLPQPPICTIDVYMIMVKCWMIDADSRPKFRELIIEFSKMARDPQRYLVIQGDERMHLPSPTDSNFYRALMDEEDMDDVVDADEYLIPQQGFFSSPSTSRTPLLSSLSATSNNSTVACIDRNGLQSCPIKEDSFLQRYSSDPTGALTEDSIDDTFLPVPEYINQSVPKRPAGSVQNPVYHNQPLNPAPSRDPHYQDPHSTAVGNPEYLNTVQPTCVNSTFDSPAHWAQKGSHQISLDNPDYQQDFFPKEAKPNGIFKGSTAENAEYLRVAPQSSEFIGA
Chain of MAP4K1 (HPK1) (Q92918 whole entry): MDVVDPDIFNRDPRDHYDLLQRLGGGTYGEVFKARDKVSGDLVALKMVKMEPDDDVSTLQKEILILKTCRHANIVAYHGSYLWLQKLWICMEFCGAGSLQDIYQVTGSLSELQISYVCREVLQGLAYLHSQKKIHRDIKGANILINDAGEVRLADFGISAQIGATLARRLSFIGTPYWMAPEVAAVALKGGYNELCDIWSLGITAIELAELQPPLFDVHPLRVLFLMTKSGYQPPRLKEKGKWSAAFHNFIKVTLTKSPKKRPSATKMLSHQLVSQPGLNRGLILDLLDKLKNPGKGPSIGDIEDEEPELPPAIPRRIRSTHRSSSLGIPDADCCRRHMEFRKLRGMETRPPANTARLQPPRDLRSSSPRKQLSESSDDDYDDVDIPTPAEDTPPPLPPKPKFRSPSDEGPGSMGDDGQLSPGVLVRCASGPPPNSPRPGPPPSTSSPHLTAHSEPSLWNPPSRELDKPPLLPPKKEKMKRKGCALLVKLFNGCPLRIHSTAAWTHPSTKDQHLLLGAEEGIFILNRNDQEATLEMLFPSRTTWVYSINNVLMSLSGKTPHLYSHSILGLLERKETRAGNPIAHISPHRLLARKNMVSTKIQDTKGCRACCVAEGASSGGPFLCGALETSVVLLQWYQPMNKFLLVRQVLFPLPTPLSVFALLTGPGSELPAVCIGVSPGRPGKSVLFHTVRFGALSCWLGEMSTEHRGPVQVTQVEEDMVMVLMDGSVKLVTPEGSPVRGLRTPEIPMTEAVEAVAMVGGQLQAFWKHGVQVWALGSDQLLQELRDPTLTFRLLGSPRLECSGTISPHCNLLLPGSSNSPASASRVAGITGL

As to `Cc1cc(Nc2ncc(Cl)c(Nc3ccccc3P(C)(C)=O)n2)cc2c1N1CCN(C3CCN(C)CC3)C[C@@H]1CO2` [Compound 27R], the 50% inhibitory concentration (IC50) in data set [1] was ≤ 1 nM. Moreover, in data set [2], the peak concentration (Cmax) came out at 196 ng/mL, the time to peak (Tmax) worked out at 5.33 h and the half-life was 5.17 h. Also, the AUC(0-t) in data set [2] (read-out: AUC0-24 h) came to 2750 ng·h/mL. Moreover, the IC50 in data set [3] was < 3 nM. Moreover, in data set [4], the GI50 was < 20 nM.
